US12492181B2, “Gem-disubstituted piperidine melanocortin subtype-2 receptor (MC2R) antagonists and uses thereof” (Crinetics Pharmaceuticals, Inc., priority 2019, dated 2025)

Target: T1, hMC2 receptor (crude hMC2R membranes from CRE-bla-CHO-K1 cells stably expressing hMC2 receptor and hMRAP accessory protein) (Homo sapiens, UniProt Q01718)
T1 construct: crude membrane fractions
Assay: hMC2 membrane binding assay ([125I]ACTH (1-39) Tyr23, SPA)
Details: displacement of 0.2 nM [125I]ACTH (1-39) Tyr23 from hMC2R membranes, 1.5 hours at room temperature; read-out: MC2R binding potency
Outline: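 Ki values come from non-linear regression of SPA scintillation counts, with compounds displacing [125I]ACTH(1-39) Tyr23. Membranes come from CRE-bla-CHO-K1 cells stably expressing hMC2 receptor together with hMRAP. They are preincubated with WGA-coated PVT SPA beads in 50 mM HEPES pH 7.4 with 0.20% BSA, Mg2+, Ca2+ and protease inhibitors.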

T1 sequence (Q01718 whole entry): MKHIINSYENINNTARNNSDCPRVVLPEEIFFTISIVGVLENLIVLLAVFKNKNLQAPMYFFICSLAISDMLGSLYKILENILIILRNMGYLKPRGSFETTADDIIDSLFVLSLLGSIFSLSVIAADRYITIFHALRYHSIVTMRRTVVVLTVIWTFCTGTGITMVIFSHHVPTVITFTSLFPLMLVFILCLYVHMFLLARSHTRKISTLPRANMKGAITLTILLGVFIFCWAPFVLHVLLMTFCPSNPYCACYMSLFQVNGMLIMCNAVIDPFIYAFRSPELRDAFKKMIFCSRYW
T1 sequence (Q8TCY5 whole entry partner): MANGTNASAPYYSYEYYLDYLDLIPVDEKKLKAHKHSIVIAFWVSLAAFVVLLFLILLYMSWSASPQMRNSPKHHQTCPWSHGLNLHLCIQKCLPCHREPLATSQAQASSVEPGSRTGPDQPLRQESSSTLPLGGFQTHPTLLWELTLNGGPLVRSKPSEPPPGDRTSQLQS

Row | SMILES | Ki [nM]
1 | CN(C)[C@@H]1COC[C@H]1NC(=O)C1(c2ccc(-c3cccn3C)nc2)CCN(c2ccc(C(F)(F)F)cc2C#N)CC1 [Compound 1-264, 1-[2-cyano-4-(trifluoromethyl)phenyl]-N-[(3S,4S)-4-(dimethylamino)oxolan-3-yl]-4-[6-(1-methyl-1H-pyrrol-2-yl)pyridin-3-yl]piperidine-4-carboxamide] | 10 to 100
2 | COc1ncccc1-c1ccc(C2(C(=O)N[C@H]3CCN(C)C3)CCN(c3ccc(C(F)(F)F)cc3Cl)CC2)cn1 [Compound 1-142, 1-[2-chloro-4-(trifluoromethyl)phenyl]-4-{2′-methoxy-[2,3′-bipyridin]-5-yl}-N-[(3S)-1-methylpyrrolidin-3-yl]piperidine-4-carboxamide] | < 10
3 | COc1ncccc1-c1ccc(C2(C(=O)NCCN(C)C)CCN(c3ccc(C(F)(F)F)cc3F)CC2)cn1 [Compound 1-271, N-[2-(dimethylamino)ethyl]-1-[2-fluoro-4-(trifluoromethyl)phenyl]-4-{2′-methoxy-[2,3′-bipyridin]-5-yl}piperidine-4-carboxamide] | < 10
4 | CCOc1ncccc1-c1ccc(C2(C(=O)NCC3CN(C)C3)CCN(c3ccc(C(F)(F)F)cc3C#N)CC2)cn1 [Compound 1-18, 1-[2-cyano-4-(trifluoromethyl)phenyl]-4-{2′-ethoxy-[2,3′-bipyridin]-5-yl}-N-[(1-methylazetidin-3-yl)methyl]piperidine-4-carboxamide] | < 10
5 | CCOc1ncccc1-c1cnc(C2(C(=O)N[C@H]3CCN(C)C3)CCN(c3ccc(C(F)(F)F)cc3C#N)CC2)cn1 [Compound 1-58, 1-[2-cyano-4-(trifluoromethyl)phenyl]-4-[5-(2-ethoxypyridin-3-yl)pyrazin-2-yl]-N-[(3S)-1-methylpyrrolidin-3-yl]piperidine-4-carboxamide] | < 10
6 | Cn1cccc1-c1ccc(C2(NC(=O)[C@H]3CCNC3)CCN(c3ccc(C(F)(F)F)cc3C#N)CC2)cn1 [Compound 2-44, (3S)—N-{1-[2-cyano-4-(trifluoromethyl)phenyl]-4-[6-(1-methyl-1H-pyrrol-2-yl)pyridin-3-yl]piperidin-4-yl}pyrrolidine-3-carboxamide] | < 10
7 | CNCCNC(=O)C1(c2ccc(-c3cccn3C)nc2)CCN(c2ccc(C(F)(F)F)cc2F)CC1 [Compound 1-281, 1-[2-fluoro-4-(trifluoromethyl)phenyl]-4-[6-(1-methyl-1H-pyrrol-2-yl)pyridin-3-yl]-N-[2-(methylamino)ethyl]piperidine-4-carboxamide] | < 10
8 | CN1CC[C@@H](NC(=O)C2(c3ccc(-c4ccn(C)c4)nc3)CCN(c3ccc(C(F)(F)F)cc3C#N)CC2)C1 [Compound 1-115, 1-[2-cyano-4-(trifluoromethyl)phenyl]-4-[6-(1-methyl-1H-pyrrol-3-yl)pyridin-3-yl]-N-[(3R)-1-methylpyrrolidin-3-yl]piperidine-4-carboxamide] | 10 to 100
9 | Cc1occc1-c1ccc(C2(C(=O)N[C@@H]3CCN(C)C3)CCN(c3ccc(C(F)(F)F)cc3C#N)CC2)cn1 [Compound 1-116, 1-[2-cyano-4-(trifluoromethyl)phenyl]-4-[6-(2-methylfuran-3-yl)pyridin-3-yl]-N-[(3R)-1-methylpyrrolidin-3-yl]piperidine-4-carboxamide] | < 10
10 | CCc1ccccc1-c1ccc(C2(C(=O)N[C@@H]3CCN(C)C3)CCN(c3ccc(C(F)(F)F)cc3C#N)CC2)cn1 [Compound 1-60, 1-[2-cyano-4-(trifluoromethyl)phenyl]-4-[6-(2-ethylphenyl)pyridin-3-yl]-N-[(3R)-1-methylpyrrolidin-3-yl]piperidine-4-carboxamide] | < 10
11 | CCOc1ncccc1-c1ccc(C2(C(=O)N[C@H]3CCN(C)C3)CCN(c3ccccc3C#N)CC2)cn1 [Compound 1-32, 1-(2-cyanophenyl)-4-{2′-ethoxy-[2,3′-bipyridin]-5-yl}-N-[(3S)-1-methylpyrrolidin-3-yl]piperidine-4-carboxamide] | 10 to 100
12 | COc1ccc(F)cc1-c1ccc(C2(C(=O)N[C@@H]3CCN(C)C3)CCN(c3ccc(C(F)(F)F)cc3C#N)CC2)cn1 [Compound 1-81, 1-[2-cyano-4-(trifluoromethyl)phenyl]-4-[6-(5-fluoro-2-methoxyphenyl)pyridin-3-yl]-N-[(3R)-1-methylpyrrolidin-3-yl]piperidine-4-carboxamide] | < 10
13 | CCOc1ncccc1-c1ccc(C2(C(=O)NC[C@@H](C)N)CCN(c3ccc(C(F)(F)F)cc3C#N)CC2)cc1 [Compound 1-4, N-[(2R)-2-aminopropyl]-1-[2-cyano-4-(trifluoromethyl)phenyl]-4-[4-(2-ethoxypyridin-3-yl)phenyl]piperidine-4-carboxamide] | 10 to 100
14 | CCOc1ncccc1-c1ccc(C2(C(=O)N[C@H]3CCN(C)C3)CCN(c3ncc(C(F)(F)F)cc3C#N)CC2)cn1 [Compound 1-42, 1-[3-cyano-5-(trifluoromethyl)pyridin-2-yl]-4-{2′-ethoxy-[2,3′-bipyridin]-5-yl}-N-[(3S)-1-methylpyrrolidin-3-yl]piperidine-4-carboxamide] | < 10
15 | CCOc1ncccc1-c1ccc(C2(C(=O)NCCN(C)C)CCN(c3ccc(C(F)(F)F)cc3C#N)CC2)cn1 [Compound 1-15, 1-[2-cyano-4-(trifluoromethyl)phenyl]-N-[2-(dimethylamino)ethyl]-4-{2′-ethoxy-[2,3′-bipyridin]-5-yl}piperidine-4-carboxamide] | 10 to 100
16 | COc1ccccc1-c1ccc(C2(C(=O)NC3CN(C)C3)CCN(c3ccc(Cl)cc3C#N)CC2)cn1 [Compound 1-92, 1-(4-chloro-2-cyanophenyl)-4-[6-(2-methoxyphenyl)pyridin-3-yl]-N-(1-methylazetidin-3-yl)piperidine-4-carboxamide] | < 10
17 | CCOc1ncccc1-c1ncc(C2(C(=O)N[C@@H](C)CN(C)C)CCN(c3ccc(C(F)(F)F)cc3F)CC2)cc1F [Compound 1-312, N-[(2S)-1-(dimethylamino)propan-2-yl]-4-{2′-ethoxy-3-fluoro-[2,3′-bipyridin]-5-yl}-1-[2-fluoro-4-(trifluoromethyl)phenyl]piperidine-4-carboxamide] | < 10
18 | CCOc1ncccc1-c1ccc(C2(NC(=O)N3CC[C@H](NC)C3)CCN(c3ccc(C(F)(F)F)cc3C#N)CC2)cn1 [Compound 2-24, (3S)—N-{1-[2-cyano-4-(trifluoromethyl)phenyl]-4-{2′-ethoxy-[2,3′-bipyridin]-5-yl}piperidin-4-yl}-3-(methylamino)pyrrolidine-1-carboxamide] | < 10
19 | CCOc1ncccc1-c1ncc(C2(C(=O)N[C@@H](C)CNC)CCN(c3ccc(C(F)(F)F)cc3F)CC2)cc1F [Compound 1-315, 4-{2′-ethoxy-3-fluoro-[2,3′-bipyridin]-5-yl}-1-[2-fluoro-4-(trifluoromethyl)phenyl]-N-[(2S)-1-(methylamino)propan-2-yl]piperidine-4-carboxamide] | < 10
20 | COc1ccccc1-c1ccc(C2(C(=O)NCCN(C)C)CCN(c3ccc(C(F)(F)F)cc3F)CC2)cn1 [Compound 1-254, N-[2-(dimethylamino)ethyl]-1-[2-fluoro-4-(trifluoromethyl)phenyl]-4-[6-(2-methoxyphenyl)pyridin-3-yl]piperidine-4-carboxamide] | < 10
21 | CN1CC[C@H]1CNC(=O)C1(c2ccc(-c3cccn3C)nc2)CCN(c2ccc(C(F)(F)F)cc2C#N)CC1 [Compound 1-241, 1-[2-cyano-4-(trifluoromethyl)phenyl]-4-[6-(1-methyl-1H-pyrrol-2-yl)pyridin-3-yl]-N-{[(2S)-1-methylazetidin-2-yl]methyl}piperidine-4-carboxamide] | < 10
22 | CN1CC[C@H](NC(=O)C2(c3ccc(-c4ccccn4)nc3)CCN(c3ccc(C(F)(F)F)cc3C#N)CC2)C1 [Compound 1-176, 4-{[2,2′-bipyridin]-5-yl}-1-[2-cyano-4-(trifluoromethyl)phenyl]-N-[(3S)-1-methylpyrrolidin-3-yl]piperidine-4-carboxamide] | 10 to 100
23 | CCOc1ncccc1-c1ccc(C2(C(=O)N[C@H]3CCNC3)CCN(c3ccc(C(F)(F)F)cc3C#N)CC2)cn1 [Compound 1-12, 1-[2-cyano-4-(trifluoromethyl)phenyl]-4-{2′-ethoxy-[2,3′-bipyridin]-5-yl}-N-[(3S)-pyrrolidin-3-yl]piperidine-4-carboxamide] | < 10
24 | COc1c(F)cccc1-c1ccc(C2(C(=O)N[C@@H]3CCN(C)C3)CCN(c3ccc(C(F)(F)F)cc3C#N)CC2)cn1 [Compound 1-82, 1-[2-cyano-4-(trifluoromethyl)phenyl]-4-[6-(3-fluoro-2-methoxyphenyl)pyridin-3-yl]-N-[(3R)-1-methylpyrrolidin-3-yl]piperidine-4-carboxamide] | < 10
25 | CCOc1ncccc1-c1ccc(C2(OCCN(C)C)CCN(c3ccc(C(F)(F)F)cc3C#N)CC2)cc1 [Compound 2-1, 2-{4-[2-(dimethylamino)ethoxy]-4-[4-(2-ethoxypyridin-3-yl)phenyl]piperidin-1-yl}-5-(trifluoromethyl)benzonitrile] | 10 to 100
26 | CCOc1ccccc1-c1ccc(C2(NC(=O)CN(C)C)CCN(c3ccc(Cl)cc3C#N)CC2)cn1 [Compound 2-31, N-[1-(4-chloro-2-cyanophenyl)-4-[6-(2-ethoxyphenyl)pyridin-3-yl]piperidin-4-yl]-2-(dimethylamino)acetamide] | < 10
27 | COc1ccccc1-c1ncc(C2(NC(=O)N[C@@H]3CCN(C)C3)CCN(c3ccc(C(F)(F)F)cc3C#N)CC2)cc1F [Compound 2-52, 1-{1-[2-cyano-4-(trifluoromethyl)phenyl]-4-[5-fluoro-6-(2-methoxyphenyl)pyridin-3-yl]piperidin-4-yl}-3-[(3R)-1-methylpyrrolidin-3-yl]urea] | < 10
